“And” between values parts separate entries of the source, which are not always exact repeats. Equal entries are not always repeated. *1 amine or outer side, *2 acyl side, *3 side chain or, on linkers, in order; H or OH if unused. Where a SMILES comes first, the peptide text is derived from it. [ ]: non-standard residue; d: D form. The star is where a group is joined. Dolaproine = CO[C@@H]([C@@H]1CCCN1)[C@@H](C)C(=O)O; Dil = CC[C@H](C)[C@H](NC)[C@@H](CC(=O)O)OC; PABC = O=C(OCc1ccc(N[*:1])cc1)[*:2]; X1 = C[C@@H](N*)[C@@H](O)c1ccccc1; NMeV = CN[C@H](C(=O)O)C(C)C
Assays:
[1] = system: SK-OV-3 human ovarian cancer cells; experiment: In vitro antiproliferative activity, "kiss-and-run" washout experiment (30 min + washout + up to 72 h); assay type: cell-based; details: MTT, 30 min treatment, washout, further incubation up to 72 h, 5% serum final
Description: (§1) U87MG human malignant glioma, SK-MEL-28 human melanoma, SK-OV-3 human ovarian cancer, and A549 human lung cancer cell lines were purchased from ATCC. The cells were cultured in Dulbecco’s Modified Eagle’s Medium (DMEM; Biosera, Nuaille, France), supplemented with 10% heat-inactivated Fetal Bovine Serum (FBS; Biosera), and with 1% Penicillin/Streptomycin (Biosera). Cells were cultured in sterile T75 flasks with ventilation cap (Sarstedt, Nümbrecht, Germany) at 37 °C in a humidified atmosphere with 5% CO2 in ESCO CelCulture Incubator (ESCO, Friedberg, Germany). Manipulations with the cells were performed in biosafety cabinet (laminar) ESCO Sentinel Gold class II model AC2-4E8 (ESCO).
(§2) After standard trypsinization and harvesting cells by trypsin (Biosera), ethylenediaminetetraacetic acid (EDTA; Biosera) and PBS solution, 6×10^3 cells per well were seeded in serum containing (10%) growth medium to 96-well plates with flat bottom (Eppendorf, Hamburg, Germany), in a 100 μL volume per well, and incubated at 37°C.
(§3) In the wash out experiment, cells were incubated with the compounds (5% serum final) for 30 min, then they were washed out, and additionally incubated in growth medium (5% serum final) up to 72 h. The control wells were treated only with serum free medium (5% serum final).
(§4) For the evaluation of the in vitro antiproliferative activity of compounds, the cell viability was determined by MTT assay (3-(4,5-dimethylthiazol-2-yl)-2,5-diphenyl-tetrazolium bromide) obtained from Duchefa Biochemie (Haarlem, Netherlands).
(§5) 22 µL of MTT solution (5 mg/mL in PBS, 0.5 mg/mL final) was added to each well and after 2 h incubation at 37°C, the supernatant was removed. […] Average background absorbance (DMSO-Ethanol) was subtracted from absorbance values of control and treated wells, and cell viability was determined relative to untreated (control) wells where cell viability was arbitrarily set to 100%. […] The experiments were done in triplicate and each experiment was repeated three times.
(§6) Recently, a new protocol for evaluating the antiproliferative activity and the targeting ability of integrin-ligand based conjugates was developed by the group of Prof. […] In this procedure, which we named “kiss-and-run” experiment, after very short initial contact times (15–30 min) of the toxin with the cells in vitro, the solution is drained, and cells are resuspended in the culture medium for a 72 h incubation. This protocol is aimed at simulating the rapid clearance of the drugs that occurs in vivo in the extracellular tumor environment, thus highlighting the ability of the conjugate to bind the integrin receptor on the cell surface.

[2] = system: U87MG human malignant glioma cells; experiment: as above; assay type: cell-based; details: MTT, 30 min treatment, washout, further incubation up to 72 h, 5% serum final
Description: as §1, §2, §3, §4, §5, §6

[3] = system: A549 human lung cancer cells; experiment: as above; assay type: cell-based; details: MTT, 30 min treatment, washout, further incubation up to 72 h, 5% serum final; αVβ3 low expressing line
Description: as §1, §2, §3, §4, §5, §6

[4] = system: SK-MEL-28 human melanoma cells; experiment: as above; assay type: cell-based; details: MTT, 30 min treatment, washout, further incubation up to 72 h, 5% serum final
Description: as §1, §2, §3, §4, §5, §6

[5] = target: T1, recombinant human MMP-2 protein (Active) (Homo sapiens, UniProt P08253); experiment: Enzymatic-cleavage assay with MMP-2 enzyme; assay type: in vitro ADME; details: recombinant human MMP-2, enzyme:linker 1:20 (w/w), Tris·HCl buffer pH 7.4, 37 °C, 74 h, HPLC-UV 254 nm, by retention time vs free MMAE
T1 construct: with the active form of MMP-2 enzyme; purchased Abcam ab81550
T1 sequence (P08253 110-660): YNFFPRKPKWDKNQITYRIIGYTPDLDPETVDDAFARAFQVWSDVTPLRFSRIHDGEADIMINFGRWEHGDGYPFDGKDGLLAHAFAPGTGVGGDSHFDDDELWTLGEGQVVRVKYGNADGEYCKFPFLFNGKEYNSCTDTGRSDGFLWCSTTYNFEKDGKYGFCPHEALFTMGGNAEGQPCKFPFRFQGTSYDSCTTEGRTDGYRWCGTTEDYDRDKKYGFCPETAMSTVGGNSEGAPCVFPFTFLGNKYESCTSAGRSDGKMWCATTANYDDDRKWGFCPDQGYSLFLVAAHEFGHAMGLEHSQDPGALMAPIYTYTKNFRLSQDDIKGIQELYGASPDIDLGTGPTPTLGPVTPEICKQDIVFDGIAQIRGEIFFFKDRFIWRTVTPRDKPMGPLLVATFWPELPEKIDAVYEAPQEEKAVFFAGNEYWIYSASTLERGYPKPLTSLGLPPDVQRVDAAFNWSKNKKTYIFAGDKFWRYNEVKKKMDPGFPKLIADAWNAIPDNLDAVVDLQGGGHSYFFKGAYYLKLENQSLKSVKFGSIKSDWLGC
Description: The cleavage test with the MMP-2 enzyme was performed using recombinant human MMP-2 protein (Active) purchased from Abcam (ab81550). A buffer solution Tris∙HCl (50 mM), NaCl (0.2 M), CaCl2 (10 mM), Brij-35 (0.05%), ZnSO4 (50 µM), pH 7.4 was prepared in accordance with the literature ([Tauro et al., 2008]). A solution of EDTA (50 mM) was prepared for stopping the MMP-2 activity. For the assay, the MMP-2 enzyme (10 µg) was diluted with 100 µL Milli-Q Water, accordingly to the data sheet. A solution of the H2N-GPLG-PABC-MMAE 7 was prepared (0.105 mg in 0.881 mL of buffer solution). To start the assay, 25 µL MMP-2 enzyme was added to 475 µL of the linker solution to have 1:20 (w/w) enzyme: linker ratio. […] The resulting solution was diluted with 180 µL Milli-Q Water and 70 µL of acetonitrile (MeCN) and analyzed by analytical HPLC SHIMADZU LC-20AP equipped with diode array UV detector and LiChrosorb RP-18 (5 μm) C18 column. […]
Samples were analyzed using analytical HPLC SHIMADZU LC -20AP equipped with diode array UV detector and LiChrosorb® RP-18 (5 μm) C18 column, flow rate: 1 mL/min., gradient: from 90% (H2O + 0.1% TFA) / 10% (MeCN) to 40% (H2O + 0.1% TFA) / 60% (MeCN) in 16 min. to 10% (H2O + 0.1% TFA) / 90% (MeCN) in 9 min. to 10% (H2O + 0.1% TFA) / 90% (MeCN) in 5 min. to 90% (H2O + 0.1% TFA) / 10% (MeCN) in 5 min. to 90% (H2O + 0.1% TFA) / 10% (MeCN) in 5 min. […]

[6] = system: SK-OV-3 human ovarian cancer cells; experiment: In vitro antiproliferative activity, MTT, 72 h continuous treatment (no-washout); assay type: cell-based; details: MTT, 72 h continuous treatment, no washout, 5% serum final; triplicate, repeated three times
Description: as §1, §2, §3, §4, §5

[7] = system: A549 human lung cancer cells; experiment: as above; assay type: cell-based; details: MTT, 72 h continuous treatment, no washout, 5% serum final; αVβ3 low expressing line; triplicate, repeated three times
Description: as §1, §2, §3, §4, §5

SK-OV-3 cells = experiment: In vitro antiproliferative activity in the presence of MMP-2 inhibitor; assay type: cell-based, human; details: 16 h pre-incubation with MMP-2 inhibitor 10 µM, then 72 h continuous treatment, 5% serum final; average ± SD, triplicate; read-out: IC50 MMP-2 inhibitor + Treatment 72 h SK-OV-3 (αVβ3 +)
Description: as §4
(§7) 22 µL of MTT solution (5 mg/mL in PBS, 0.5 mg/mL final) was added to each well and after 2 h incubation at 37°C, the supernatant was removed. The precipitated purple formazan crystals were dissolved in 100 µL of a 1:1 solution of dimethylsulfoxide (DMSO; Merck, St. Louis, MO, United States): 96% Ethanol (Molar Chemicals Kft., Halásztelek, Hungary) and the absorbance was measured after 15 min at λ = 570 nm by using microplate reader CLARIOstar Plus (BMG Labtech, Ortenberg, Germany). Average background absorbance (DMSO-Ethanol) was subtracted from absorbance values of control and treated wells, and cell viability was determined relative to untreated (control) wells where cell viability was arbitrarily set to 100%. Absorbance values of treated samples were normalized versus untreated control samples and interpolated by nonlinear regression analysis with GraphPad Prism 6 software (GraphPad, La Jolla, San Diego, CA, United States) to generate sigmoidal dose-response curves from which the 50% inhibitory concentration (IC50) values of the compounds were calculated and presented as nanomolar (nM) units. The experiments were done in triplicate and each experiment was repeated three times.
(§8) The conjugate 2 and the free MMAE were tested in presence of the MMP-2 inhibitor cis-9-octadecenoyl-N-hydroxylamine (Merck) dissolved in DMSO ([You et al., 2018]). The three αVβ3 integrin and MMP-2 overexpressing cancer cell lines (U87MG, SK-MEL-28, […]) were seeded with serum containing medium ([Ellijimi et al., 2018]; [Shim et al., 2019]) and, after 8 h, were washed-out. Then, 100 µL per well of MMP-2 inhibitor (10 µM final concentration) were added and cells were incubated for 16 h, prior to the treatment. Later, the conjugate 2 and free MMAE were dissolved in 10% serum containing medium and added to reach the same concentrations evaluated in the previous test in a final volume of 100 µL per well and incubated (5% serum final) continuously for 72 h of the treatment. The experiments were performed in triplicate.

U87MG cells = experiment: as above; assay type: cell-based, human; details: 16 h pre-incubation with MMP-2 inhibitor 10 µM, then 72 h continuous treatment, 5% serum final; average ± SD, triplicate; read-out: IC50 MMP-2 inhibitor + Treatment 72 h U87MG (αVβ3 +)
Description: as §4, §7, §8

SK-MEL-28 cells = experiment: as above; assay type: cell-based, human; details: 16 h pre-incubation with MMP-2 inhibitor 10 µM, then 72 h continuous treatment, 5% serum final; average ± SD, triplicate; read-out: IC50 MMP-2 inhibitor + Treatment 72 h SK-MEL-28 (αVβ3 +)
Description: as §4, §7, §8

[8] = system: U87MG human malignant glioma cells; experiment: In vitro antiproliferative activity, MTT, 72 h continuous treatment (no-washout); assay type: cell-based; details: MTT, 72 h continuous treatment, no washout, 5% serum final; triplicate, repeated three times
Description: as §1, §2
(§9) […] The control wells were treated only with serum free medium (5% serum final).
as §4, §5

[9] = system: SK-MEL-28 human melanoma cells; experiment: as above; assay type: cell-based; details: MTT, 72 h continuous treatment, no washout, 5% serum final; triplicate, repeated three times
Description: as §1, §2, §9, §4, §5

SMILES	IC50 [1] [nM]	IC50 [2] [nM]	IC50 [3] [nM]	IC50 [4] [nM]	release of free MMAE on incubation with active MMP-2 [5]	IC50 [6]	IC50 [7] [nM]	IC50 (SK-OV-3 cells) [nM]	IC50 (U87MG cells) [nM]	IC50 (SK-MEL-28 cells) [nM]	IC50 [8] [nM]	IC50 [9] [nM]	IC50 72h SK-MEL-28 [9]
N=C(N)NCCC[C@@H]1NC(=O)CNC(=O)C[C@@H](C(=O)O)NC(=O)C[C@H]2NC(=O)[C@H](CNC1=O)N(Cc1ccccc1)C2=O [compound 10, cyclo[DKP-isoDGR], reference compound]	> 20000	> 20000	> 20000	> 20000									
CC[C@H](C)[C@@H]([C@@H](CC(=O)N1CCC[C@H]1[C@H](OC)[C@@H](C)C(=O)N[C@H](C)[C@@H](O)c1ccccc1)OC)N(C)C(=O)[C@@H](NC(=O)[C@H](C(C)C)N(C)C(=O)OCc1ccc(NC(=O)CNC(=O)[C@H](CC(C)C)NC(=O)[C@@H]2CCCN2C(=O)CN)cc1)C(C)C [compound 7, H2N-GPLG-PABC-MMAE] (H-GPLG[PABC][NMeV]V[Dil][Dolaproine]-X1)					not observed								
CC[C@H](C)[C@@H]([C@@H](CC(=O)N1CCC[C@H]1[C@H](OC)[C@@H](C)C(=O)N[C@H](C)[C@@H](O)c1ccccc1)OC)N(C)C(=O)[C@@H](NC(=O)[C@@H](NC)C(C)C)C(C)C [MMAE, monomethyl auristatin E] (H-[NMeV]V[Dil][Dolaproine]-X1)	206 ± 23.6	2130 ± 216	266 ± 16.1	1400 ± 137		0.03 nM and 0.0307 nM	0.0688 ± 0.0021	0.0334 ± 0.0119	0.374 ± 0.132	1.9 ± 0.778	0.225 ± 0.0126	2.39 ± 0.395	very low nanomolar range
CCCCCCCC/C=C\CCCCCCCC(=O)NO [MMP-2 Inhibitor, cis-9-octadecenoyl-N-hydroxylamide]								> 20000	> 20000	> 20000			

Reference: publication PMC10363981, “Optimizing the enzymatic release of MMAE from isoDGR-based small molecule drug conjugate by incorporation of a GPLG-PABC enzymatically cleavable linker” (Frontiers in Pharmacology, 2023)
